Data taken from paper PMC4406947, “CALM Regulates Clathrin-Coated Vesicle Size and Maturation by Directly Sensing and Driving Membrane Curvature” (Developmental Cell, 2015).

What was measured:
CALM ANTH(ΔH0) = biological target: T1, CALM ANTH(ΔH0) (Homo sapiens, UniProt Q13492); test: liposome-based SPR (BIAcore […]); type: binding; conditions: PtdIns4,5P2-containing liposomes, not free lipid; 170 mM salt
T1 construct: gene PICALM; recombinant ANTH domain lacking the N-terminal amphipathic helix AH0 (residues 1-18); construct details in supplement; clone could be rat Picalm
T1 sequence (Q13492 19-289): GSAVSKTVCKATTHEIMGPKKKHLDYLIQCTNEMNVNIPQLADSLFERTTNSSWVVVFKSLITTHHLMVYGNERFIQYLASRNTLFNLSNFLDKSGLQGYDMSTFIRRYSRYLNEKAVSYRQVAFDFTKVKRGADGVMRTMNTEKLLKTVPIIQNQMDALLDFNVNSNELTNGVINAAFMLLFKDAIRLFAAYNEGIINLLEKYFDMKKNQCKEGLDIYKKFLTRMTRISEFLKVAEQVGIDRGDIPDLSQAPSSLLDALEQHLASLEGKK

CALM ANTH (CALM ANTH-WT) = biological target: T2, CALM ANTH (CALM ANTH-WT); test: liposome-based SPR (BIAcore […]); type: binding, Homo sapiens; conditions: PtdIns4,5P2-containing liposomes, not free lipid; 170 mM salt
T2 construct: gene PICALM; recombinant N-terminal ANTH domain including AH0, first 289 residues; construct details in supplement; clone could be rat Picalm (earlier ANTH constructs of this group)

- Kd (CALM ANTH(ΔH0)): 11.5 ± 1.1 µM
- Kd (CALM ANTH (CALM ANTH-WT)): 1.5 µM
Substance: PtdIns4,5P2
